Test results reported in ChEMBL document CHEMBL2203021, “The synthesis and biological evaluation of novel Danshensu-cysteine analog conjugates as cardiovascular-protective agents” (2012).
The source made the active and inactive calls. The calls are words filed in the database; no cut-off is given here.

What was measured:
HUVEC [1] = assay: Inhibition of H2O2-induced cytotoxicity in HUVEC cells assessed as cell viability at 5 to 100 umol/L incubated 4 hrs prior to H2O2 challenge measured after 12 hrs by MTT assay; type: functional, cell-based; conditions: Homo sapiens
HUVEC [2] = assay: Antioxidant activity against H2O2-induced lipid accumulation in HUVEC cells assessed as reduction in MDA level at 5 mmol/L incubated 4 hrs prior to H2O2 challenge measured after 12 hrs; type: functional, cell-based; conditions: Homo sapiens
HUVEC [3] = assay: Inhibition of H2O2-induced cytotoxicity in HUVEC cells assessed as LDH release at 5 mmol/L incubated 4 hrs prior to H2O2 challenge measured after 12 hrs by LDH assay; type: functional, cell-based; conditions: Homo sapiens
HUVEC [4] = assay: Antioxidant activity in HUVEC cells assessed as […] in H2O2-induced GSH activity at 5 mmol/L incubated 4 hrs prior to H2O2 challenge measured after 12 hrs; type: functional, cell-based; conditions: Homo sapiens
HUVEC [5] = assay: Inhibition of H2O2-induced cytotoxicity in HUVEC cells assessed as cell viability at 5 mmol/L incubated 4 hrs prior to H2O2 challenge measured after 12 hrs by MTT assay; type: functional, cell-based; conditions: Homo sapiens
HUVEC [6] = assay: Antioxidant activity in HUVEC cells assessed as […] in H2O2-induced GSH activity at 50 umol/L incubated 4 hrs prior to H2O2 challenge measured after 12 hrs; type: functional, cell-based; conditions: Homo sapiens
HUVEC [7] = assay: Inhibition of H2O2-induced cytotoxicity in HUVEC cells assessed as LDH release at 50 umol/L incubated 4 hrs prior to H2O2 challenge measured after 12 hrs by LDH assay; type: functional, cell-based; conditions: Homo sapiens
HUVEC [8] = assay: Antioxidant activity against H2O2-induced lipid accumulation in HUVEC cells assessed as reduction in MDA level at 50 umol/L incubated 4 hrs prior to H2O2 challenge measured after 12 hrs; type: functional, cell-based; conditions: Homo sapiens
HUVEC [9] = assay: Antiapoptotic activity in HUVEC cells assessed as reduction in H2O2-induced PARP level by Western blotting relative to control; type: functional, cell-based; conditions: Homo sapiens
HUVEC [10] = assay: Antiapoptotic activity against H2O2-induced HUVEC cells assessed as increase in Bcl-2 level by Western blotting relative to control; type: functional, cell-based; conditions: Homo sapiens
HUVEC [11] = assay: Antiapoptotic activity in HUVEC cells assessed as […] in H2O2-induced pro-caspase-9 level by Western blotting; type: functional, cell-based; conditions: Homo sapiens
HUVEC [12] = assay: Antiapoptotic activity against H2O2-induced HUVEC cells assessed as reduction in total apoptotic cells at 5 umol/L after 4 hrs by annexin V-FITC/propidium iodide staining-based flow cytometry; type: functional, Homo sapiens; parameters: scale not given: the % may be the effect or the level left
HUVEC [13] = assay: Antiapoptotic activity in HUVEC cells assessed as reduction in H2O2-induced nuclei-shrunk by Hoechst staining; type: functional, cell-based; conditions: Homo sapiens
HUVEC [14] = assay: Antiapoptotic activity in HUVEC cells assessed as reduction in H2O2-induced nuclear condensation by hoechst staining; type: functional, cell-based; conditions: Homo sapiens
HUVEC [15] = assay: Antiapoptotic activity in HUVEC cells assessed as reduction in H2O2-induced p53 level by Western blotting relative to control; type: functional, cell-based; conditions: Homo sapiens
HUVEC [16] = assay: Antiapoptotic activity against H2O2-induced HUVEC cells assessed as reduction in total apoptotic cells at 50 umol/L after 4 hrs by annexin V-FITC/propidium iodide staining-based flow cytometry; type: functional, Homo sapiens; parameters: scale not given: the % may be the effect or the level left
HUVEC [17] = assay: Antiapoptotic activity in HUVEC cells assessed as reduction in H2O2-induced Bax level by Western blotting relative to control; type: functional, cell-based; conditions: Homo sapiens
HUVEC [18] = assay: Antioxidant activity against in HUVEC cells assessed as […] in H2O2-induced GSH activity incubated 4 hrs prior to H2O2 challenge measured after 12 hrs; type: functional, cell-based; conditions: Homo sapiens
HUVEC [19] = assay: Antiapoptotic activity in HUVEC cells assessed as inhibition of H2O2-induced mitochondrial membrane potential reduction by JC-1 staining; type: functional, cell-based; conditions: Homo sapiens
HUVEC [20] = assay: Antioxidant activity against H2O2-induced lipid accumulation in HUVEC cells assessed as reduction in MDA level incubated 4 hrs prior to H2O2 challenge measured after 12 hrs; type: functional, cell-based; conditions: Homo sapiens
HUVEC [21] = assay: Antiapoptotic activity against H2O2-induced HUVEC cells assessed as reduction in late apoptotic cells after 4 hrs by annexin V-FITC/propidium iodide staining-based flow cytometry; type: functional, cell-based; conditions: Homo sapiens
HUVEC [22] = assay: Antiapoptotic activity against H2O2-induced HUVEC cells assessed as reduction in total apoptotic cells at 100 umol/L after 4 hrs by annexin V-FITC/propidium iodide staining-based flow cytometry; type: functional, Homo sapiens; parameters: scale not given: the % may be the effect or the level left
HUVEC [23] = assay: Antiapoptotic activity in HUVEC cells assessed as […] in H2O2-induced pro-caspase-3 level by Western blotting; type: functional, cell-based; conditions: Homo sapiens
HUVEC [24] = assay: Inhibition of H2O2-induced cytotoxicity in HUVEC cells assessed as LDH release incubated 4 hrs prior to H2O2 challenge measured after 12 hrs by LDH assay; type: functional, cell-based; conditions: Homo sapiens

**Q.** Which Activity (HUVEC [1]) does the source give for `COC(=O)[C@H](CSC(=O)CCc1ccc(OC(C)=O)c(OC(C)=O)c1)NC(=O)OC(C)(C)C` here?
**A.** The Activity was “inactive”.

**Q.** Which results are given for `CC(=O)N[C@@H](CS)C(=O)O`?
**A.** Activity (HUVEC [2]): Active; inhibition (HUVEC [3]): Active; Activity (HUVEC [4]): Active; inhibition (HUVEC [5]): Active

**Q.** For `COC(=O)[C@H](CSC(=O)C(Cc1ccc(OC(C)=O)c(OC(C)=O)c1)OC(C)=O)NC(=O)OC(C)(C)C` (stereo partly drawn), which inhibition (HUVEC [1]) is on record?
**A.** The inhibition was “inactive”.

**Q.** `COC(=O)[C@@H](N)CSC(=O)C(Cc1ccc2c(c1)OCO2)OC(C)=O` (stereo partly drawn) was tested. Which inhibition (HUVEC [1]) did it give?
**A.** Its inhibition is “Active”.

**Q.** Which results are given for `COC(=O)[C@H](CSC(=O)/C(=C/c1ccc(OC(C)=O)c(OC(C)=O)c1)OC(C)=O)NC(=O)OC(C)(C)C`?
**A.** Activity (HUVEC [6]): Active; inhibition (HUVEC [7]): Active; inhibition (HUVEC [1]): Active; Activity (HUVEC [8]): Active

**Q.** For `COC(=O)[C@@H](N)CSC(=O)CCc1ccc(OC(C)=O)c(OC(C)=O)c1`, which Activity (HUVEC [1]) is on record?
**A.** The Activity was “inactive”.

**Q.** Which results are given for `COC(=O)[C@H](CSCc1ccccc1)NC(=O)C(Cc1ccc(OC(C)=O)c(OC(C)=O)c1)OC(C)=O` (stereo partly drawn)?
**A.** Activity (HUVEC [6]): Active; inhibition (HUVEC [7]): Active; inhibition (HUVEC [1]): Active; Activity (HUVEC [8]): Active

**Q.** Which Activity (HUVEC [9]) does the source give for `COC(=O)[C@H](CSCc1ccccc1)NC(=O)/C(=C/c1ccc(OC(C)=O)c(OC(C)=O)c1)OC(C)=O` here?
**A.** Its Activity is “Dose-dependent effect”.

**Q.** And the Activity (HUVEC [6])?
**A.** The Activity was “Active”.

**Q.** And the Activity (HUVEC [10])?
**A.** The Activity was “Dose-dependent effect”.

**Q.** What about the Activity (HUVEC [11]) of the same compound?
**A.** The Activity was “Dose-dependent effect”.

**Q.** And the inhibition (HUVEC [7])?
**A.** The inhibition was “Active”.

**Q.** And the Activity (HUVEC [12])?
**A.** The Activity was 20.1%.

**Q.** What about the Activity (HUVEC [13]) of the same compound?
**A.** Its Activity is “Dose-dependent effect”.

**Q.** What about the Activity (HUVEC [14]) of the same compound?
**A.** Its Activity is “Dose-dependent effect”.

**Q.** What about the Activity (HUVEC [15]) of the same compound?
**A.** The Activity was “Dose-dependent effect”.

**Q.** What about the Activity (HUVEC [16]) of the same compound?
**A.** Its Activity is 9%.

**Q.** And the Activity (HUVEC [17])?
**A.** The Activity was “Dose-dependent effect”.

**Q.** And the inhibition (HUVEC [1])?
**A.** The inhibition was “Active”.

**Q.** What about the Activity (HUVEC [18]) of the same compound?
**A.** Its Activity is “Dose-dependent effect”.

**Q.** And the Activity (HUVEC [19])?
**A.** The Activity was “Dose-dependent effect”.

**Q.** What about the Activity (HUVEC [20]) of the same compound?
**A.** Its Activity is “Dose-dependent effect”.

**Q.** What about the Activity (HUVEC [21]) of the same compound?
**A.** Its Activity is “Dose-dependent effect”.

**Q.** And the Activity (HUVEC [22])?
**A.** The Activity was 5.4%.

**Q.** What about the Activity (HUVEC [23]) of the same compound?
**A.** Its Activity is “Dose-dependent effect”.

**Q.** What about the Activity (HUVEC [8]) of the same compound?
**A.** The Activity was “Active”.

**Q.** What about the inhibition (HUVEC [24]) of the same compound?
**A.** Its inhibition is “Dose-dependent effect”.

**Q.** With `COC(=O)[C@@H](N)CSC(=O)/C(=C/c1ccc(OC(C)=O)c(OC(C)=O)c1)OC(C)=O` as the compound, how does the inhibition (HUVEC [1]) read?
**A.** The inhibition was “Active”.

**Q.** For `COC(=O)[C@@H](N)CSC(=O)C(Cc1ccc(OC(C)=O)c(OC(C)=O)c1)OC(C)=O` (stereo partly drawn), which inhibition (HUVEC [1]) is on record?
**A.** Its inhibition is “inactive”.

**Q.** For `COC(=O)[C@@H](N)CSC(=O)CCc1ccc2c(c1)OCO2`, which Activity (HUVEC [1]) is on record?
**A.** The Activity was “inactive”.

**Q.** With `COC(=O)[C@H](CSCc1ccccc1)NC(=O)C(Cc1ccc2c(c1)OCO2)OC(C)=O` (stereo partly drawn) as the compound, how does the inhibition (HUVEC [1]) read?
**A.** Its inhibition is “inactive”.

**Q.** Which inhibition (HUVEC [1]) does the source give for `COC(=O)[C@H](CSC(=O)C(Cc1ccc2c(c1)OCO2)OC(C)=O)NC(=O)OC(C)(C)C` (stereo partly drawn) here?
**A.** The inhibition was “inactive”.

**Q.** Which Activity (HUVEC [1]) does the source give for `COC(=O)[C@H](CSC(=O)CCc1ccc2c(c1)OCO2)NC(=O)OC(C)(C)C` here?
**A.** Its Activity is “inactive”.

**Q.** For `COC(=O)[C@@H](N)CSC(=O)/C(=C/c1ccc2c(c1)OCO2)OC(C)=O`, which inhibition (HUVEC [1]) is on record?
**A.** The inhibition was “Active”.

**Q.** What does the source list for `COC(=O)[C@H](CSCc1ccccc1)NC(=O)CCc1ccc(OC(C)=O)c(OC(C)=O)c1`?
**A.** Activity (HUVEC [6]): Active; inhibition (HUVEC [7]): Active; inhibition (HUVEC [1]): Active; Activity (HUVEC [8]): Active

**Q.** What does the source list for `COC(=O)[C@H](CSC(=O)/C(=C/c1ccc2c(c1)OCO2)OC(C)=O)NC(=O)OC(C)(C)C`?
**A.** Activity (HUVEC [6]): Active; inhibition (HUVEC [7]): Active; inhibition (HUVEC [1]): Active; Activity (HUVEC [8]): Active

**Q.** `COC(=O)[C@H](CSCc1ccccc1)NC(=O)/C(=C/c1ccc2c(c1)OCO2)OC(C)=O` was tested. Which inhibition (HUVEC [1]) did it give?
**A.** Its inhibition is “inactive”.

**Q.** `COC(=O)[C@H](CSCc1ccccc1)NC(=O)CCc1ccc2c(c1)OCO2` was tested. Which inhibition (HUVEC [1]) did it give?
**A.** Its inhibition is “inactive”.
